Experimental data: patent publication US20130116304A1, “TMEM195 ENCODES FOR TETRAHYDROBIOPTERIN-DEPENDENT ALKYLGLYCEROL MONOOXYGENASE ACTIVITY” (priority 2010, published 2013)
One block for each molecule: values may come before it.

Assays:
[1] = molecular target: T1, alkylglycerol monooxygenase (Rattus norvegicus, UniProt A0JPQ8); conditions: rat liver microsomes; from reference (22); cited from earlier work
T1 construct: those found in rat liver microsomes (KM 8.90 μM for 1-O-pyrenedecylglycerol); from tissue; host or cells: rat liver microsomes
T1 sequence (A0JPQ8 1-447): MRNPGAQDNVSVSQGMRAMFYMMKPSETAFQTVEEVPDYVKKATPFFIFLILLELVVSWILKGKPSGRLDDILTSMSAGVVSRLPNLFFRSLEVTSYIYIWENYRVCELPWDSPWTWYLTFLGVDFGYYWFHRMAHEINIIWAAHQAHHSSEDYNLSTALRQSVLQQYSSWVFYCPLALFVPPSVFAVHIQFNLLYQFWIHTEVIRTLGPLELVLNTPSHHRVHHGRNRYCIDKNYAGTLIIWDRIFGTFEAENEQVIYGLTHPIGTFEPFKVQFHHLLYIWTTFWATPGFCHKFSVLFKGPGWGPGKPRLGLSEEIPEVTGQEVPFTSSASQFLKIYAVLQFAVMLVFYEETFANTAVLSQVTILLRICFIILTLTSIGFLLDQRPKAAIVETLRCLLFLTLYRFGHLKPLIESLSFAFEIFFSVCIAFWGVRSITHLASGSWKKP

[2] = molecular target: T2, alkylglycerol monooxygenase (TMEM195) (Homo sapiens, UniProt Q6ZNB7); assay: Alkylglycerol monooxygenase activity generated in CHO cells by transfection of TMEM195 and ALDH3A2 (pyrenedecanoic acid, HPLC with fluorescence detection); assay type: biochemical; conditions: mean±SEM
T2 construct: host or cells: CHO-K1 cells, transiently transfected with ExGen 500; pellets opened in water with 0.5% CHAPS
T2 sequence (Q6ZNB7 1-445): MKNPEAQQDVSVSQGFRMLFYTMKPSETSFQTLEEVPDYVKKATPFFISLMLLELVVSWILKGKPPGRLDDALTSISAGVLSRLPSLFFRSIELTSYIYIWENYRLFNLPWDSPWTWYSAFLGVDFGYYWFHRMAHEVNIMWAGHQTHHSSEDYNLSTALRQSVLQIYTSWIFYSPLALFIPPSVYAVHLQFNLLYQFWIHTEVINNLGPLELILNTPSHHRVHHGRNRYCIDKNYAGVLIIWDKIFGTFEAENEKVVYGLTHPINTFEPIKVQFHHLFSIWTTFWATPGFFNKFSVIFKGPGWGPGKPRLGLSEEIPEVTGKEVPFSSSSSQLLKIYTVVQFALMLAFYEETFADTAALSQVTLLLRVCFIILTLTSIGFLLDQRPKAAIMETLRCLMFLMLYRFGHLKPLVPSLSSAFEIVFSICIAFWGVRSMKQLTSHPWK
Procedure: A pyrene-labelled alkylglycerol (1-O-pyrenedecyl-sn-glycerol) was used as substrate which was converted to pyrenedecanal by alkylglycerol monooxygenase. […] The reaction was started by addition of the protein and incubated for 60 min at 37° C. in the dark. Negative controls without protein (concentration of pyrenedecanoic acid <1 nM) and rat liver microsomes as positive controls were always run in parallel. After addition of 30 μl methanol and centrifugation for 5 min at 16,000 g, 10 μl of the sample were injected to a Zorbax XDB-C8 rapid resolution column (Agilent Technologies, Vienna, Austria) using an Agilent 1200 Series HPLC system. […] Pyrenedecanoic acid was detected by fluorescence (340 nm excitation and 400 nm emission, detection limit 1 nM).
80,000 Chinese hamster ovary Ki cells (CHO-K1, LGC Promochem, Wesel, Germany) were transfected with 1 μg of expression plasmids or plasmid pools using the ExGen 500 transfection agent (Fermentas, St. Leon-Rot, Germany) and standard protocols. […] For control of transfection efficiency, a plasmid encoding enhanced green fluorescent protein (pEGFP-N1, Clonetech, Mountain View, Calif., USA) was used and fluorescence quantified directly in the culture plates by a Typhoon 9410 scanner (GE Healthcare). […] Alkylglycerol monooxygenase activity (22) and fatty aldehyde dehydrogenase activity (31) were then determined as described.

[3] = substrate: C[C@H](O)[C@H](O)[C@H]1CNc2nc(N)[nH]c(=O)c2N1; assay: purified protein, by the assay type; conditions: other: activity generated in CHO cells by transfection of TMEM195 and ALDH3A2; KM for substrate or cofactor; mean±SEM; 37.0 °C

Km ([2]; activity generated in CHO cells by transfection of TMEM195 and ALDH3A2, KM for substrate or cofactor, read-out: Michaelis Menten constant (KM)): 11 ± 1.1 µM
Molecule: OC[C@H](O)COCCCCCCCCCCc1ccc2ccc3cccc4ccc1c2c34 [1-O-pyrenedecylglycerol, 1-O-pyrenedecyl-sn-glycerol]
Km [1]: 8.9 µM

IC50 ([2]; activity generated in CHO cells by transfection, read-out: 50% inhibition of alkylglycerol monooxygenase activity): 1.39 ± 0.38 µM
Molecule: c1cnc2c(c1)ccc1cccnc12 [1,10-Phenanthroline]

Molecule: C[C@H](O)[C@H](O)[C@H]1CNc2nc(N)[nH]c(=O)c2N1 [tetrahydrobiopterin]
Km [1]: 2.6 µM

B1: alkylglycerol monooxygenase (TMEM195) (Homo sapiens) (protein)
chain: T2 sequence (Q6ZNB7 1-445)
Km [3]: 2.58 ± 0.42 µM
